Assay results: patent US20240369550A1, “MACROMOLECULAR STRUCTURES AND USES THEREOF” (The Regents of the University of Michigan, priority 2015, published 2024)
“Also recorded” adds a separate entry of the source.

Tested on: DNase I
Experiment: DNase I-mediated degradation of DNA-histone structures (degradation modifier assay)
Type: biochemical, bovine
Conditions: LL-37 approx. 0.5, 5 or 50 μM; total Sytox Green fluorescence; relative to structures lacking LL-37 treated with DNase I
Description: Time-lapse microscopy and microplate photometry were utilized to measure the overall rate of degradation, and DNA-histone structures were treated with multiple concentrations of DNase I to verify the dose-dependency of this rate (FIG. 3).
1 mg/ml DNase I (MW 31 kDa) was prepared in 10 mM Tris-HCl, 10 mM CaCl2, pH 7.5 (Tris buffer). Each well containing DNA-histone structures (as previously described) was washed 3 times with 150 μl of Tris buffer, and all solutions within each well were removed. 200 μL of the DNase I solution was then added to each well, and time-lapse fluorescent images of each well were acquired.
1 mg/ml LL-37 (MW 4.49 kDa) and 2 mg/ml histones (both in PBS) were added to a solution of 20% w/w PEG/PBS such that the final concentration of histones was approximately 1 mg/ml, and the final concentration of LL-37 in each solution was approximately 0.5 μM, 5 μM, or 50 μM. […]
After complete removal of the solutions in each well, 150 μL of DNase I solution was added to each well. Time-lapse images or measurements of total fluorescence were acquired at a rate of one measurement per minute.

LL-37
overall rate of DNase I-mediated degradation of DNA-histone structures: dose-dependent decrease in the overall rate of DNase I-mediated degradation; also recorded: inhibit the rate of DNase I mediated degradation
